Data as given in patent US20260085315A1, “POLYNUCLEOTIDE COMPOSITIONS AND METHODS FOR TREATMENT OF CANCER” (APTAH BIO, INC., priority 2023, published 2026).
Where “and” joins values, the source holds several entries; their conditions need not be identical. Equal values may be shown once. d = 2'-deoxy (DNA); m = 2'-O-methyl

Legend:
786-O line = experiment: MTT cytotoxicity assay on human cancer cell panel (Example 2); type: cell-based; details: 0.03-30 μM, 0.1% FBS
Method: Cell lines were maintained in growth medium with 10% of Fetal Bovine Serum (FBS) until the time of the experiments. Cells were sub-cultured by trypsinization and splitting the cell suspension into fresh flasks and supplementing with fresh culture medium. To perform the assay, the cells were trypsinized, neutralized with complete medium (10% FBS), centrifuged, counted with assistance of a hemocytometer, and plated with the respective media with 10% FBS. Cell lines were plated at a density of 1×10^4 cells per well, other than the SH-SY5Y cell line which was plated at a density of 2.5×10^4. The preparation of the different experimental groups was done with 0.1% FBS (U87MG, MCF-7, SH-SY5Y and 786-O) and 1% FBS (PC-3). The untreated cells were used as negative control (medium only). After 24, 48, 72 and 96 hours of incubation, the effect of ASMO1 and controls on cytotoxicity of cells was determined by MTT assay.
Briefly, plates were taken out and 20 μl of 5 mg/ml of MTT 3-(4,5-dimethythiazol-2-yl)-2,5-diphenyl tetrazolium bromide solution was added to all the wells. […] The absorbance of each well was then read at 540 nm using Synergy HT microplate reader.
Cells were plated and treated with 7 different concentrations (0.03, 0.1, 0.3, 1, 3, 10 and 30 μM) of APT20TTMG with medium (0.1% FBS). MTT assay was performed in 3 distinct times and graphs are represented as absorbance (540 nm). […]

MCF-7 cell line = experiment: Cell cycle assay (propidium iodide, flow cytometry); type: cell-based, Human; details: 0.25 and 0.5 μM; 48 hours; only statistically significant alteration
Method: Cell cycle assays were performed to understand how the ASMO APT20TTMG affects the cell cycle of MCF-7 cell line and its potential mechanisms of action. Initially, cells were plated in 12-well plates at a density of 5×10^4 cells/well and cultured for 24 hours for adhesion and then treated with three different concentrations of APT20TTMG (0.25, 0.5 and 1.0 μM) for 48 hours. After, cells were collected using a solution of trypsin/EDTA and washed with 2.0 mL of PBS buffer followed by centrifugation at 1500 rpm for 5 minutes. Then, the cells were fixed with ice-cold 70% ethanol and incubated overnight at 4° C. After that, cells were washed again with 2.0 mL of PBS and incubated with Propidium Iodide solution (50 μg/mL) and RNAse (200 μg/mL) for 1 hour at room temperature and protected from light. Finally, the cells were analyzed in a flow cytometer (BD FACSCanto II, BD Biosciences), through the acquisition of 10.000 gated events considering each sample.

U87-MG cell line [1] = experiment: Distribution of cell cycle phases; type: cell-based, Human; details: 0.25 μM, 48 hours
Method: The methodologies for this Example are the same as shown in Example 4.
Cells were plated and treated with 3 different concentrations (0.25, 0.5, and 1 μM) of APT20TTMG and cell cycle phases were evaluated after 48 hours of incubation. Cell proliferation is regulated by cell cycle progression. Phases: Sub/G1: non-proliferative state (quiescence); G1/G0: cell growth; S: DNA replication; G2/M: DNA segregation and mitosis. Results were expressed as Mean Standard Error of three independent experiments.

U87-MG cell line [2] = experiment: Apoptosis assay; type: cell-based, Human
AKT = experiment: ELISA of tumor tissue homogenate; type: in vivo, Human; details: in relation to the negative control
Method: (§1) For the assessment of biomarkers such as cAMP, AKT, GFAP, and TAU by ELISA, the U-87MG tumor tissues dissected out from the animals were homogenized according to kit instructions. The homogenates were centrifugated, and the supernatant was collected and immunoassayed with the Human AKT Protein ELISA Kit (MyByoSouce), cyclic AMP Complete Enzyme-linked Immunosorbent Assay (ELISA) kit (MyByoSouce), Human Glial Fibrillary Acidic Protein (GFAP) ELISA Kit (Cusabio), and Human TAU Protein (TAU) ELISA Kit (MyByoSouce) for the quantitative determination of cAMP, AKT, GFAP, and TAU proteins, respectively.
(§2) As shown in FIG. 37A-D, the graphs present the individual values of protein quantification of tumors from 6 animals. (A) cAMP, (B) […], (C) GFAP, and (D) TAU.

GFAP = experiment: ELISA of tumor tissue homogenate; type: in vivo, Human; details: in relation to the non-treated control
Method: as §1, §2

TAU = experiment: ELISA of tumor tissue homogenate; type: in vivo, Human; details: after treatment
Method: as §1, §2

[3] = tested on: Human Glioblastoma Cancer (U-87MG) xenograft; experiment: Histopathology of tumor samples with scoring; type: in vivo, athymic nude mice; design: key: 4: Minimal; 3: Mild; 2: Moderate; 1: Prominent; details: individual animals; G3 APT20TTMG, G2 TMZ
Excerpt: The fixed tissues were processed for routine paraffin embedding followed by sectioning (3-6 micron). The sections were stained with hematoxylin and eosin. The prepared slides were examined under microscope by the study pathologist to record histopathological findings in tumor samples, related to capsule formation, cell type, connective tissue stroma, apoptosis, necrosis, lipid content, nucleus-to-cytoplasmic (N:C) ratio, nuclei mitotic figures, tumor grade, and level of differentiation. Each histopathological finding and tumor volume were assigned a score ranging from 1 to 4 (Table 7). The sum of these scores for each sample was used to infer the tumor aggressiveness.

[4] = two highest concentrations (0.5 and 1 μM)

## APT20TTMG: engineered polynucleotide ASMO1, 24 nt, SEQ ID NO: 3 gtccactaacctttcaggccagcg; targeting moieties 5′-GTCCA-3′ and 5′-CG-3′, U1 snRNP recruiting moiety (GTCCACTAACCTTTCAGGCCAGCG; sugars from the 5' end m5 d14 m5, all phosphorothioate, methylation of C and T or U not given here)
786-O line; 48 and 72 hours
  cell viability (MTT): no difference when compared to the control (vehicle group), only in the highest concentration (30 μM)
786-O line; 24 hours
  cell viability (MTT): can alter cell viability
MCF-7 cell line
  cells in S phase of cell cycle: lower concentration of cells
U87-MG cell line [1]; p=0.0036
  cells in G1/G0 phase: reduction in retention
U87-MG cell line [1]; p=0.0425
  cells in G2/M phase: increase in retention
U87-MG cell line [2]; 0.25 μM
  late apoptosis: trend toward this state
U87-MG cell line [2]; [4]
  late apoptosis: significantly marked for late apoptosis
  viable cells (apoptosis assay): reduce cell viability
AKT
  AKT expression in tumor tissue (ELISA): reduces the expression of ART protein
GFAP
  GFAP in tumor tissue (ELISA): reduction of this biomarker
TAU
  TAU expression in tumor tissue (ELISA): significant reduction in TAU expression
[3]
  Score: Mitotic figures: 2
  Score: Necrosis: 3 and 2
